System: p53 signaling pathway in MT373 tumors
Test: MT373 syngeneic sarcoma model: mouse p53 signaling pathway profiling panel
Assay type: in vivo
Details: for Actb* mRNA (housekeeping or reference gene), Fold Increase Over Vehicle Control or Percent Reduction Compared to Vehicle Control (%) / B2m* mRNA (housekeeping or reference gene), Fold Increase Over Vehicle Control or Percent Reduction Compared to Vehicle Control (%) / Gapdh* mRNA (housekeeping or reference gene), Fold Increase Over Vehicle Control or Percent Reduction Compared to Vehicle Control (%) / Gusb* mRNA (housekeeping or reference gene), Fold Increase Over Vehicle Control or Percent Reduction Compared to Vehicle Control (%) / Hsp90ab1* mRNA (housekeeping or reference gene), Fold Increase Over Vehicle Control or Percent Reduction Compared to Vehicle Control (%) / MGDC* (housekeeping or reference gene), Fold Increase Over Vehicle Control or Percent Reduction Compared to Vehicle Control (%) / Trp63 mRNA, Fold Increase Over Vehicle Control or Percent Reduction Compared to Vehicle Control (%) / Trp73 mRNA, Fold Increase Over Vehicle Control or Percent Reduction Compared to Vehicle Control (%) / Wt1 mRNA, Fold Increase Over Vehicle Control or Percent Reduction Compared to Vehicle Control (%) / Zmat3 mRNA, Fold Increase Over Vehicle Control or Percent Reduction Compared to Vehicle Control (%): MT373 tumors

SMILES: CCn1c(C#CCNc2ccccc2)cc2cc(CNC3CCN(C)CC3)ccc21 [Compound 1, 1-Anilino-3-{1-ethyl-5-[(1-methyl-4-piperidylamino)methyl]-1H-indol-2-yl}-2-propyne]
- Il6 mRNA change (150 mg/kg BID×1, 24 h): 85.31%
- Mdm2 mRNA increase (150 mg/kg BID×1, 24 h): 5.96 fold
- Sesn2 mRNA increase (150 mg/kg BID×1, 24 h): 2.45 fold
- Zmat3 mRNA increase (150 mg/kg BID×1, 24 h): 6.17 fold
- Actb* mRNA (housekeeping or reference gene), Fold Increase Over Vehicle Control or Percent Reduction Compared to Vehicle Control (%) (75 mg/kg BIDx1, 8 h): 1.60 fold or %
- B2m* mRNA (housekeeping or reference gene), Fold Increase Over Vehicle Control or Percent Reduction Compared to Vehicle Control (%) (75 mg/kg BIDx1, 8 h): 1.16 fold or %
- Gapdh* mRNA (housekeeping or reference gene), Fold Increase Over Vehicle Control or Percent Reduction Compared to Vehicle Control (%) (75 mg/kg BIDx1, 8 h): 11.24 fold or %
- Gusb* mRNA (housekeeping or reference gene), Fold Increase Over Vehicle Control or Percent Reduction Compared to Vehicle Control (%) (75 mg/kg BIDx1, 8 h): 1.12 fold or %
- Hsp90ab1* mRNA (housekeeping or reference gene), Fold Increase Over Vehicle Control or Percent Reduction Compared to Vehicle Control (%) (75 mg/kg BIDx1, 8 h): 10.06 fold or %
- MGDC* (housekeeping or reference gene), Fold Increase Over Vehicle Control or Percent Reduction Compared to Vehicle Control (%) (75 mg/kg BIDx1, 8 h): 1.79 fold or %
- Trp63 mRNA, Fold Increase Over Vehicle Control or Percent Reduction Compared to Vehicle Control (%) (75 mg/kg BIDx1, 8 h): 3.58 fold or %
- Trp73 mRNA, Fold Increase Over Vehicle Control or Percent Reduction Compared to Vehicle Control (%) (75 mg/kg BIDx1, 8 h): 16.09 fold or %
- Wt1 mRNA, Fold Increase Over Vehicle Control or Percent Reduction Compared to Vehicle Control (%) (75 mg/kg BIDx1, 8 h): 28.78 fold or %
- Zmat3 mRNA, Fold Increase Over Vehicle Control or Percent Reduction Compared to Vehicle Control (%) (75 mg/kg BIDx1, 8 h): 6.25 fold or %
- Actb* mRNA (housekeeping or reference gene), Fold Increase Over Vehicle Control or Percent Reduction Compared to Vehicle Control (%) (75 mg/kg BIDx1, 24 h): 1.08 fold or %
- B2m* mRNA (housekeeping or reference gene), Fold Increase Over Vehicle Control or Percent Reduction Compared to Vehicle Control (%) (75 mg/kg BIDx1, 24 h): 1.14 fold or %
- Gapdh* mRNA (housekeeping or reference gene), Fold Increase Over Vehicle Control or Percent Reduction Compared to Vehicle Control (%) (75 mg/kg BIDx1, 24 h): 13.68 fold or %
- Gusb* mRNA (housekeeping or reference gene), Fold Increase Over Vehicle Control or Percent Reduction Compared to Vehicle Control (%) (75 mg/kg BIDx1, 24 h): 1.25 fold or %
- Hsp90ab1* mRNA (housekeeping or reference gene), Fold Increase Over Vehicle Control or Percent Reduction Compared to Vehicle Control (%) (75 mg/kg BIDx1, 24 h): 17.39 fold or %
- MGDC* (housekeeping or reference gene), Fold Increase Over Vehicle Control or Percent Reduction Compared to Vehicle Control (%) (75 mg/kg BIDx1, 24 h): 1.27 fold or %
- Trp63 mRNA, Fold Increase Over Vehicle Control or Percent Reduction Compared to Vehicle Control (%) (75 mg/kg BIDx1, 24 h): 1.58 fold or %
- Trp73 mRNA, Fold Increase Over Vehicle Control or Percent Reduction Compared to Vehicle Control (%) (75 mg/kg BIDx1, 24 h): 1.01 fold or %
- Wt1 mRNA, Fold Increase Over Vehicle Control or Percent Reduction Compared to Vehicle Control (%) (75 mg/kg BIDx1, 24 h): 21.25 fold or %
- Zmat3 mRNA, Fold Increase Over Vehicle Control or Percent Reduction Compared to Vehicle Control (%) (75 mg/kg BIDx1, 24 h): 4.14 fold
- Actb* mRNA (housekeeping or reference gene), Fold Increase Over Vehicle Control or Percent Reduction Compared to Vehicle Control (%) (75 mg/kg BIDx1, 48 h): 1.07 fold or %
- B2m* mRNA (housekeeping or reference gene), Fold Increase Over Vehicle Control or Percent Reduction Compared to Vehicle Control (%) (75 mg/kg BIDx1, 48 h): 1.27 fold or %
- Gapdh* mRNA (housekeeping or reference gene), Fold Increase Over Vehicle Control or Percent Reduction Compared to Vehicle Control (%) (75 mg/kg BIDx1, 48 h): 34.54 fold or %
- Gusb* mRNA (housekeeping or reference gene), Fold Increase Over Vehicle Control or Percent Reduction Compared to Vehicle Control (%) (75 mg/kg BIDx1, 48 h): 1.31 fold or %
- Hsp90ab1* mRNA (housekeeping or reference gene), Fold Increase Over Vehicle Control or Percent Reduction Compared to Vehicle Control (%) (75 mg/kg BIDx1, 48 h): 12.45 fold or %
- MGDC* (housekeeping or reference gene), Fold Increase Over Vehicle Control or Percent Reduction Compared to Vehicle Control (%) (75 mg/kg BIDx1, 48 h): 1.78 fold or %
- Trp63 mRNA, Fold Increase Over Vehicle Control or Percent Reduction Compared to Vehicle Control (%) (75 mg/kg BIDx1, 48 h): 2.65 fold or %
- Trp73 mRNA, Fold Increase Over Vehicle Control or Percent Reduction Compared to Vehicle Control (%) (75 mg/kg BIDx1, 48 h): 3.40 fold or %
- Wt1 mRNA, Fold Increase Over Vehicle Control or Percent Reduction Compared to Vehicle Control (%) (75 mg/kg BIDx1, 48 h): 21.51 fold or %
- Zmat3 mRNA, Fold Increase Over Vehicle Control or Percent Reduction Compared to Vehicle Control (%) (75 mg/kg BIDx1, 48 h): 1.02 fold or %
- Actb* mRNA (housekeeping or reference gene), Fold Increase Over Vehicle Control or Percent Reduction Compared to Vehicle Control (%) (75 mg/kg BIDx1, 72 h): 1.06 fold or %
- B2m* mRNA (housekeeping or reference gene), Fold Increase Over Vehicle Control or Percent Reduction Compared to Vehicle Control (%) (75 mg/kg BIDx1, 72 h): 1.11 fold or %
- Gapdh* mRNA (housekeeping or reference gene), Fold Increase Over Vehicle Control or Percent Reduction Compared to Vehicle Control (%) (75 mg/kg BIDx1, 72 h): 14.41 fold or %
- Gusb* mRNA (housekeeping or reference gene), Fold Increase Over Vehicle Control or Percent Reduction Compared to Vehicle Control (%) (75 mg/kg BIDx1, 72 h): 1.11 fold or %
- Hsp90ab1* mRNA (housekeeping or reference gene), Fold Increase Over Vehicle Control or Percent Reduction Compared to Vehicle Control (%) (75 mg/kg BIDx1, 72 h): 7.83 fold or %
- MGDC* (housekeeping or reference gene), Fold Increase Over Vehicle Control or Percent Reduction Compared to Vehicle Control (%) (75 mg/kg BIDx1, 72 h): 1.36 fold or %
- Trp63 mRNA, Fold Increase Over Vehicle Control or Percent Reduction Compared to Vehicle Control (%) (75 mg/kg BIDx1, 72 h): 1.62 fold or %
- Trp73 mRNA, Fold Increase Over Vehicle Control or Percent Reduction Compared to Vehicle Control (%) (75 mg/kg BIDx1, 72 h): 1.00 fold or %
